Results reported in ChEMBL document CHEMBL4507298 (2021).

Tests used:
[1] = biological target: Tyrosine-protein kinase Lyn (Homo sapiens) (UniProt P07948); assay: Lyn kinase (h) CEREP ligand profiling; conditions: Compound concentration 10.0 uM
[2] = biological target: Prostaglandin G/H synthase 2 (Homo sapiens) (UniProt P35354); assay: COX2 (h) CEREP ligand profiling; conditions: Compound concentration 10.0 uM
[3] = test system: Leucine-rich repeat serine/threonine-protein kinase 2 (Homo sapiens), Q5S007 [G2019S]; conditions: Compound concentration 1000.0 nM
[4] = biological target: Serine/threonine-protein kinase Sgk1 (Homo sapiens) (UniProt O00141); conditions: Compound concentration 1000.0 nM
Thromboxane A2 receptor = Thromboxane A2 receptor (Homo sapiens, UniProt P21731); assay: Binding assay (TBXA2R)
[5] = biological target: Serine/threonine-protein kinase PAK 3 (Homo sapiens) (UniProt O75914); conditions: Compound concentration 1000.0 nM
[6] = biological target: Mitogen-activated protein kinase kinase kinase 12 (Homo sapiens) (UniProt Q12852); conditions: Compound concentration 1000.0 nM
[7] = biological target: Serine/threonine-protein kinase D1 (Homo sapiens) (UniProt Q15139); conditions: Compound concentration 1000.0 nM
[8] = biological target: RAC-gamma serine/threonine-protein kinase (Homo sapiens) (UniProt Q9Y243); conditions: Compound concentration 1000.0 nM
[9] = biological target: Tyrosine-protein kinase ABL1 (Homo sapiens) (UniProt P00519); conditions: Compound concentration 1000.0 nM
[10] = biological target: Mu-type opioid receptor (Homo sapiens) (UniProt P35372); assay: mu (h) (MOP) (agonist site) CEREP ligand profiling; conditions: Compound concentration 10.0 uM
[11] = biological target: Tyrosine-protein kinase receptor Tie-1 (Homo sapiens) (UniProt P35590); conditions: Compound concentration 1000.0 nM
[12] = Glycine (strychnine-insensitive) CEREP ligand profiling; conditions: Compound concentration 10.0 uM
[13] = biological target: Ankyrin repeat and protein kinase domain-containing protein 1 (Homo sapiens) (UniProt Q8NFD2); conditions: Compound concentration 1000.0 nM
[14] = biological target: cAMP-dependent protein kinase catalytic subunit PRKX (Homo sapiens) (UniProt P51817); conditions: Compound concentration 1000.0 nM
[15] = biological target: Dual 3',5'-cyclic-AMP and -GMP phosphodiesterase 11A (Homo sapiens) (UniProt Q9HCR9); assay: PDE11 (h) CEREP ligand profiling; conditions: Compound concentration 10.0 uM
[16] = biological target: Voltage-gated L-type calcium channel (verapamil site) (Homo sapiens, UniProt O60840+Q01668+Q13698+Q13936); assay: Ca2+ channel (L, verapamil site) CEREP ligand profiling; type: protein assay; conditions: compound concentration 10 uM
[17] = biological target: T1, 5-hydroxytryptamine receptor 3A (Homo sapiens) (UniProt P46098); assay: 5-HT3 (h) CEREP ligand profiling; conditions: Compound concentration 10.0 uM
T1 sequence (whole entry): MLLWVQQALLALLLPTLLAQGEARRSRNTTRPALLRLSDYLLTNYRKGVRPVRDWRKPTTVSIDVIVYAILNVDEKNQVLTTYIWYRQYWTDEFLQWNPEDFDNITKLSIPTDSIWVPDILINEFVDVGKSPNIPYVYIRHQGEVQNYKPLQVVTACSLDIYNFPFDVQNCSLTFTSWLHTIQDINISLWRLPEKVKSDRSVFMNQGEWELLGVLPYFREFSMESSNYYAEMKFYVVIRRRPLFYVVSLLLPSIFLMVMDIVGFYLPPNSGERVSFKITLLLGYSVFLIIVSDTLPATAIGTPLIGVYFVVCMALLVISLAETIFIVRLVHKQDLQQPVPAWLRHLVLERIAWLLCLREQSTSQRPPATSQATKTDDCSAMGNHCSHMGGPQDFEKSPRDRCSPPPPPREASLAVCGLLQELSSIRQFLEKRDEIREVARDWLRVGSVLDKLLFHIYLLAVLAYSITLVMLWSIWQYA

[18] = biological target: High affinity nerve growth factor receptor (Homo sapiens) (UniProt P04629); conditions: Compound concentration 1000.0 nM
[19] = biological target: Histamine H3 receptor (Homo sapiens) (UniProt Q9Y5N1); assay: H3 (h) CEREP ligand profiling; conditions: Compound concentration 10.0 uM
Prostacyclin receptor = Prostacyclin receptor (Homo sapiens, UniProt P43119); assay: Binding assay (PTGIR)
[20] = biological target: Cytoplasmic tyrosine-protein kinase BMX (Homo sapiens) (UniProt P51813); conditions: Compound concentration 1000.0 nM
[21] = biological target: Serine/threonine-protein kinase WNK4 (Homo sapiens) (UniProt Q96J92); conditions: Compound concentration 1000.0 nM
[22] = biological target: Leukotriene B4 receptor 1 (Homo sapiens, UniProt Q15722); assay: Binding assay (LTB4R )
[23] = biological target: Serine/threonine-protein kinase PAK 2 (Homo sapiens) (UniProt Q13177); conditions: Compound concentration 1000.0 nM
[24] = biological target: T2, Muscarinic acetylcholine receptor M2 (Homo sapiens) (UniProt P08172); assay: M2 (h) CEREP ligand profiling; conditions: Compound concentration 10.0 uM
T2 sequence (whole entry): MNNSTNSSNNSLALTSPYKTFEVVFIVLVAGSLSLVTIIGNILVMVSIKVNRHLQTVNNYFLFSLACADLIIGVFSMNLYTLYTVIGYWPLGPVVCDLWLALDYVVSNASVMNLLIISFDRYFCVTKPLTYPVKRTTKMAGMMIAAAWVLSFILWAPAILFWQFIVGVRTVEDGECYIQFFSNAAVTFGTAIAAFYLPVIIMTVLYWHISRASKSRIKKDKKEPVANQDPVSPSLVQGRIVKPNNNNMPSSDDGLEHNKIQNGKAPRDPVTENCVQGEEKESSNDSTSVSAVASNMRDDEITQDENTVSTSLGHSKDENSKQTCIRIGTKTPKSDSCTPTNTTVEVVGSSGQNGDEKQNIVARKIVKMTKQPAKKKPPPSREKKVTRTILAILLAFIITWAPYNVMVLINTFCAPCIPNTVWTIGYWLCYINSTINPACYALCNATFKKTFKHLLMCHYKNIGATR

[25] = biological target: Serine/threonine-protein kinase WNK1 (Homo sapiens) (UniProt Q9H4A3); conditions: Compound concentration 1000.0 nM
[26] = biological target: Insulin receptor (Homo sapiens) (UniProt P06213); conditions: Compound concentration 1000.0 nM
[27] = biological target: Ephrin type-B receptor 4 (Homo sapiens) (UniProt P54760); conditions: Compound concentration 1000.0 nM
[28] = biological target: Serine/threonine-protein kinase DCLK3 (Homo sapiens) (UniProt Q9C098); conditions: Compound concentration 1000.0 nM
[29] = biological target: Ribosomal protein S6 kinase alpha-6 (Homo sapiens) (UniProt Q9UK32); conditions: Compound concentration 1000.0 nM
[30] = biological target: Melanocortin receptor 4 (Homo sapiens) (UniProt P32245); assay: MC4 (h) CEREP ligand profiling; conditions: Compound concentration 10.0 uM
[31] = biological target: Mitogen-activated protein kinase 10 (Homo sapiens) (UniProt P53779); conditions: Compound concentration 1000.0 nM
Chain of Mitogen-activated protein kinase 10 (Homo sapiens) (P53779 whole entry): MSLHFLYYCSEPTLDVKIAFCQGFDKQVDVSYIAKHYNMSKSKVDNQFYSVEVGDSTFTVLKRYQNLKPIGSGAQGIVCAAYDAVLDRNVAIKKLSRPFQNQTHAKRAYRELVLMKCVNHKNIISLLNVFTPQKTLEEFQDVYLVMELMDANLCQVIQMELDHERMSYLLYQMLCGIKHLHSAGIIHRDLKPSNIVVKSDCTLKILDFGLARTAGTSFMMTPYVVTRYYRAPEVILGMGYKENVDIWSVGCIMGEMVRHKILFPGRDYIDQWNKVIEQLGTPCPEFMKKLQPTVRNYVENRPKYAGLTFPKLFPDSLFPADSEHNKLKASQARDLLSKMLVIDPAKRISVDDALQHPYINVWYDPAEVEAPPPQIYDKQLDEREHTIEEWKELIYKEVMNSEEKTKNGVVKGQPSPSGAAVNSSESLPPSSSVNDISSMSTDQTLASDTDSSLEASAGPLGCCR

Chain of Ribosomal protein S6 kinase alpha-6 (Homo sapiens) (Q9UK32 whole entry): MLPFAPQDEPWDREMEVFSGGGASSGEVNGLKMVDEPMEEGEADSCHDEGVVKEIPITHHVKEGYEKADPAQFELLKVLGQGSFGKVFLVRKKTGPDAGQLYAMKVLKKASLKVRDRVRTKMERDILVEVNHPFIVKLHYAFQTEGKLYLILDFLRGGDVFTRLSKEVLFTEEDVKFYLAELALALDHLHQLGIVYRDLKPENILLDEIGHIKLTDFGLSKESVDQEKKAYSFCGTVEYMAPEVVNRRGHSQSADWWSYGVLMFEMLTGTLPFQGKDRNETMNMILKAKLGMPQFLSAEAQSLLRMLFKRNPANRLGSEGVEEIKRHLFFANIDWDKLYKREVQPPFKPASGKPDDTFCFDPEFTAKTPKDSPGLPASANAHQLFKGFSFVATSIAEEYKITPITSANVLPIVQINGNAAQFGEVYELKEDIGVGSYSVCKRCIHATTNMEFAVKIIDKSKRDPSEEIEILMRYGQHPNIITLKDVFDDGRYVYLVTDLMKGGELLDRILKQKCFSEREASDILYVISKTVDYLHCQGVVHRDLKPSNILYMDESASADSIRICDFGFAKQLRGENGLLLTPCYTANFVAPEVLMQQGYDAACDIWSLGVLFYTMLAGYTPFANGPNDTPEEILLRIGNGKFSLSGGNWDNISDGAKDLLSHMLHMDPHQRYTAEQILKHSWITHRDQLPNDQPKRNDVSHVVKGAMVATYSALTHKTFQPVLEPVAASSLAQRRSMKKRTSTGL
Chain of Mitogen-activated protein kinase kinase kinase 12 (Homo sapiens) (Q12852 whole entry): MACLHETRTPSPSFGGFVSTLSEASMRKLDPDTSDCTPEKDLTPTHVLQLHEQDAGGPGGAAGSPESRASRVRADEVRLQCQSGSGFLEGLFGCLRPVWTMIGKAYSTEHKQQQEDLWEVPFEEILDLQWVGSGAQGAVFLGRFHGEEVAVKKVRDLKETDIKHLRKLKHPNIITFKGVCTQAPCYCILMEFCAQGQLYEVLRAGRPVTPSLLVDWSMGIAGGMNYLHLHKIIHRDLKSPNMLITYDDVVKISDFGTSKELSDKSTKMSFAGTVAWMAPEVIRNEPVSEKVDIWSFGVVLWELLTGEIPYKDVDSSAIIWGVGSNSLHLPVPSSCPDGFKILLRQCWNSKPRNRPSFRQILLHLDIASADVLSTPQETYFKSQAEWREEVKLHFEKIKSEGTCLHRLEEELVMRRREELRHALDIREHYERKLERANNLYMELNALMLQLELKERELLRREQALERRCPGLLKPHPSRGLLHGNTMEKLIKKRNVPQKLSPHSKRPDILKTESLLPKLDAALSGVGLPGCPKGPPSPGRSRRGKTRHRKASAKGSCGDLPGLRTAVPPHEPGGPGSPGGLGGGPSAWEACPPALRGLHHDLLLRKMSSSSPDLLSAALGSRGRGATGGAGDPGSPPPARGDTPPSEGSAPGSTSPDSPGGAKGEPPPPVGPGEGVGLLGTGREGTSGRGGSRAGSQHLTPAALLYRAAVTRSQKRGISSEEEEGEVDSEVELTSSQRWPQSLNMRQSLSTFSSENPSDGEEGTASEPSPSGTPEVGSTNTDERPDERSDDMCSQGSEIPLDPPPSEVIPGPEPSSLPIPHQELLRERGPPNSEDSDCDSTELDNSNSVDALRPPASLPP
Chain of Dual 3',5'-cyclic-AMP and -GMP phosphodiesterase 11A (Homo sapiens) (Q9HCR9 whole entry, looked up): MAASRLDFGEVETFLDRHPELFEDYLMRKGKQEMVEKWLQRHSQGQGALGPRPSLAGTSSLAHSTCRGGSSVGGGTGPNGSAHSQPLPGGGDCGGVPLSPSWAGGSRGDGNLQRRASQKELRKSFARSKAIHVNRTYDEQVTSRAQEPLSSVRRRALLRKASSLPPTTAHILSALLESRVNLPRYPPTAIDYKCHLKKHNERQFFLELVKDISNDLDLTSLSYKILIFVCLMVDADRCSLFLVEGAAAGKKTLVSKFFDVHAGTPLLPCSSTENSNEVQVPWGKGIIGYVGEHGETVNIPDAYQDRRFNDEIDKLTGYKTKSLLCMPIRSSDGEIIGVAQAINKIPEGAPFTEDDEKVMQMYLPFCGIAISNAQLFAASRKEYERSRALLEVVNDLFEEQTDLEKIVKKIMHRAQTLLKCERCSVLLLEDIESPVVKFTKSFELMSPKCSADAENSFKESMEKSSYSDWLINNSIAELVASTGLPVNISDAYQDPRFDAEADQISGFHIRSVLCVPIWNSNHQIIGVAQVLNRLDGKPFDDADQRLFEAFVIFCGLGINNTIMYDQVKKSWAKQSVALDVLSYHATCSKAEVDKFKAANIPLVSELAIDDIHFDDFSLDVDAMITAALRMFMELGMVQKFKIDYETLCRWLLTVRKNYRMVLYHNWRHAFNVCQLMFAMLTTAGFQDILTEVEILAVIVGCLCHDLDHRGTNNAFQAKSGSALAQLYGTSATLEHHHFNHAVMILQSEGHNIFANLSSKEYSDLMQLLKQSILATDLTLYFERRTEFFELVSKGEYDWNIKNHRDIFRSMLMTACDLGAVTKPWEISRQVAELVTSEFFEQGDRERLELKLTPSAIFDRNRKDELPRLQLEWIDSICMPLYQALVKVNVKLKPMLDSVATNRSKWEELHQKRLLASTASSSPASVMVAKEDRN
Chain of Tyrosine-protein kinase Lyn (Homo sapiens) (P07948 2-512 limits assumed): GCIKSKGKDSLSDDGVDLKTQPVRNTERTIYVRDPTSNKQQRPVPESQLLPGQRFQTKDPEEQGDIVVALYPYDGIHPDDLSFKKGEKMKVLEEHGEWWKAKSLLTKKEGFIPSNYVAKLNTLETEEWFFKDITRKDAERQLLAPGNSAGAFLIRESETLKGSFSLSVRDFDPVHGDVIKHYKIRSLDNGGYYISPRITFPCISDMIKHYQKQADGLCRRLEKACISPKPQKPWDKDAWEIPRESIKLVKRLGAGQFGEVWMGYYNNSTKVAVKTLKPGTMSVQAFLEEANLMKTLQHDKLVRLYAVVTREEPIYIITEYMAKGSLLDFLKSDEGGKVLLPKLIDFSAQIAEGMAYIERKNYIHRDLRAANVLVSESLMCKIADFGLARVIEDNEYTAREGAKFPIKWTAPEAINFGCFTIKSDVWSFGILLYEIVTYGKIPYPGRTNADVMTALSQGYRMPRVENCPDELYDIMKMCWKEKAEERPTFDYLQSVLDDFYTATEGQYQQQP
Chain of Cytoplasmic tyrosine-protein kinase BMX (Homo sapiens) (P51813 whole entry): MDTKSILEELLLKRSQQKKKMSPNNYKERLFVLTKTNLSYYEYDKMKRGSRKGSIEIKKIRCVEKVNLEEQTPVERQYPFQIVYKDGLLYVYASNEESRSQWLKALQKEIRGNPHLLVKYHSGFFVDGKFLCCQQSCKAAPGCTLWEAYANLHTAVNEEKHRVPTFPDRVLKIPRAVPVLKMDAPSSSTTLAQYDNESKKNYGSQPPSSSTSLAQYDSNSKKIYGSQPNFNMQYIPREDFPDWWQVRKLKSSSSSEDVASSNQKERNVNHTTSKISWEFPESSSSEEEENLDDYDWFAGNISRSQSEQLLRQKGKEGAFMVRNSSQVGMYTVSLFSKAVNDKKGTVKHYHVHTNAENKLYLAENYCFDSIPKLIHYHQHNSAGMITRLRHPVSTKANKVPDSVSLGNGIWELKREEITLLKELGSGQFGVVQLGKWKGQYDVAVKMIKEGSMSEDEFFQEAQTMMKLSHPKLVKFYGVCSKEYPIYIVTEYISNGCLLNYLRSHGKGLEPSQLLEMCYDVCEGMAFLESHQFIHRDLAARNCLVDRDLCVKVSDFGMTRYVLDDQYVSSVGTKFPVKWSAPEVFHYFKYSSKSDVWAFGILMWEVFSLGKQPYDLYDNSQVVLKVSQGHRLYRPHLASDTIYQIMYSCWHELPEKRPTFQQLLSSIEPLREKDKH
Chain of Ankyrin repeat and protein kinase domain-containing protein 1 (Homo sapiens) (Q8NFD2 whole entry, the tested form may be a part): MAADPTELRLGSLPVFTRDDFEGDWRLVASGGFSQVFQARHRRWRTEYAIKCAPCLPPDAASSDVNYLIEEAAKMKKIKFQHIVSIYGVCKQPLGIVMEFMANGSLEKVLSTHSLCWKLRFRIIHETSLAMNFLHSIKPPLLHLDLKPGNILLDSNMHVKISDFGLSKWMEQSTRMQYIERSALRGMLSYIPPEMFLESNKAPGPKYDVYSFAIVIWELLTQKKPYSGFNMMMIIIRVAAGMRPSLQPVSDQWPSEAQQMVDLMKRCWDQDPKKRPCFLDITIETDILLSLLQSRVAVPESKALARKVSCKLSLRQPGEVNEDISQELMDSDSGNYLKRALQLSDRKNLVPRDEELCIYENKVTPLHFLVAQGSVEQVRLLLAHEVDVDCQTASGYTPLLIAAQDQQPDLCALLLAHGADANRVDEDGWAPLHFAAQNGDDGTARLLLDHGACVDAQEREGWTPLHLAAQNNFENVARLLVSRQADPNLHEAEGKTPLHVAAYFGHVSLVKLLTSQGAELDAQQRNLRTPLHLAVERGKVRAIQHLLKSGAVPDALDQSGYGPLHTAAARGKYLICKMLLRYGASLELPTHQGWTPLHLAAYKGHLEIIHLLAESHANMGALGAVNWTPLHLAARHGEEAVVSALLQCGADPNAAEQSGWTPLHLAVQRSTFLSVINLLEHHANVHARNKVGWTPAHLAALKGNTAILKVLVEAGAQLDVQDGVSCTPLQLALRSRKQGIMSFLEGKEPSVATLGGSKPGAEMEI

Q: Which results are given for `COc1ccc2cc(OCC3(C(=O)O)CN(C(=O)c4ccc(F)cc4)C3)ccc2c1` [PF-04418948]?
A: inhibition [1]: 2%; inhibition [2]: 2%; residual activity [3]: 84%; residual activity [4]: 81%; Ki (Thromboxane A2 receptor): > 10 µM (not active); residual activity [5]: 94%; residual activity [6]: 97%; residual activity [7]: 96%; residual activity [8]: 88%; residual activity [9]: 78%; inhibition [10]: -7%; residual activity [11]: 100%; inhibition [12]: 11%; residual activity [13]: 86%; residual activity [14]: 90%; inhibition [15]: 14%; inhibition at 10 µM [16]: -5% (not active); inhibition [17]: -6%; residual activity [18]: 71%; inhibition [19]: 10%; Ki (Prostacyclin receptor): > 10 µM (not active); residual activity [20]: 87%; residual activity [21]: 79%; Ki [22]: 4.8 µM (not active); residual activity [23]: 83%; inhibition [24]: 1%; residual activity [25]: 84%; residual activity [26]: 93%; residual activity [27]: 95%; residual activity [28]: 98%; residual activity [29]: 78%; inhibition [30]: 8%; residual activity [31]: 85%
